This is an account of results in publication PMC11462627, “SAL0114: a novel deuterated dextromethorphan-bupropion combination with improved antidepressant efficacy and safety profile” (Frontiers in Pharmacology, 2024).

Read-outs that look alike come from different tables or passages of the source.

For series [1], the system named is ICR mice. Briefly: Forced swim test. The conditions noted are these: FST, oral, 1 h after administration, deDM 10 and 18 mg/kg, BUP 50 mg/kg, deDM + BUP 10 + 50 and 18 + 50 mg/kg. It is filed as in vivo. As to the method:
The mouse forced swim test was performed in a way similar to that published previously by Nguyen et al. ([Nguyen et al., 2017]) with some modifications. […] All compounds were administered orally via gavage at a volume of 10 mL/kg body weight, with the vehicle group receiving an equivalent volume of saline. 1 h after administration, mice underwent the forced swim test (FST), a widely used behavioral assay for evaluating antidepressant-like effects. Each mouse was individually placed in a transparent cylindrical tank filled with water (depth: 18 cm, temperature: 25°C ± 1°C) for a 6-min test session. The initial 2 min served as the acclimatization period and was not scored. Floating time during the subsequent 4 min was measured using ANY-Maze Version 4.63 video tracking software (Stoelting Co., Illinois, United States). Floating was defined as the minimum movement required to keep the animal’s head above water. Floating time (%) = floatting time(s)/240 s. The ANY-Maze software parameters were set as follows: acclimatization period = 120 s, test duration = 240 s, minimum immobility time = 2 s, and immobility sensitivity = 75%. To maintain consistent conditions, water was changed between the animals. […]

Series [2] concerns ICR mice. The series can be described thus: Tail suspension test. Format: in vivo. The conditions noted are these: TST, oral, 1 h after administration, deDM 10 and 18 mg/kg, BUP 50 mg/kg, deDM + BUP 10 + 50 and 18 + 50 mg/kg. Here is the method: The TST was adapted from the behavioral despair test described by Nguyen et al. ([Nguyen et al., 2017]), with some modifications. […] All compounds were administered orally via gavage at a volume of 10 mL/kg body weight, with the vehicle group receiving an equivalent volume of saline. One hour after administration, mice underwent a tail suspension test (TST). For the TST, each mouse was suspended by its tail, with adhesive tape attached 2 cm from the tail tip and secured to a metal rod. Care was taken to ensure a minimum distance of 15 cm between the suspended animal and the surrounding objects. The test was performed using the ANY-maze version 4.63 video tracking program (Stoelting Co., Wood Dale, IL, United States) for a total duration of 6 min. The initial 2 min served as an acclimatization period and were not scored. The immobility time during the subsequent 4 min was measured using the same software. Immobility was defined as mouse hanging passively and motionless. The ANY-Maze software parameters were set as follows: acclimatization period = 120 s, test duration = 240 s, minimum immobility time = 2 s, and immobility sensitivity = 75%. […]

The subject of a further series is Sprague-Dawley rats. The series can be described thus: Reserpine-induced hypothermia in rats. As to conditions: reserpine 4 mg/kg i.p. rats, oral, 30 min after treatment; BUP 40 mg/kg, deDM 5 and 10 mg/kg, deDM + BUP 5 + 40 and 10 + 40 mg/kg. Format: in vivo. As to the method:
A reserpine-induced hypothermia test was performed according to the method described by Rojas-Corrales et al. ([Rojas-Corrales et al., 2004]; [Dhamija et al., 2017]), with some modifications. 80 male Sprague-Dawley rats were administered an intraperitoneal injection of reserpine (4 mg/kg). 18 h after the injection, rectal temperatures were measured using a rectal probe connected to a thermometer (MC-347, Omron Healthcare, Dalian, China). Rats with body temperatures not exceeding 34.5°C were considered successfully modeled. […] An additional group of ten rats not treated with reserpine served as the normal control. After the group assignment, the second phase of compound administration was initiated. The normal and model control groups received oral saline (10 mL/kg), whereas the other groups received their respective compounds orally at the specified doses, all in an equivalent volume (10 mL/kg). Rectal temperatures were measured 30 min after treatment to assess the effect of compounds in each group on the reserpine-induced hypothermia model. All experimental procedures were conducted in strict accordance with guidelines approved by the Institutional Animal Care and Use Committee of Shenzhen Salubris Pharmaceuticals Co., Ltd. A P value of less than 0.05 was considered statistically significant for comparisons between groups.

The subject of another series is C57BL/6J mice. The series can be described thus: Ammonia-induced cough mouse model. Format: in vivo. As to conditions: oral. As to the method: Antitussive effects were investigated using a classical mouse cough model induced by ammonia liquor, with some modifications ([Jiang et al., 2014]; [Adejayan et al., 2019]). An ammonia-induced cough model in male C57BL/6J mice was used to evaluate the antitussive effects using a two-step approach. The initial screening phase aimed to identify the mice with consistent and pronounced cough responses. Individual mice were exposed to 0.2 mL of 13% ammonium hydroxide solution in 500 mL glass vials. A trained observer measured the latency period and recorded the number of coughs over a 3-min period post-exposure. […] Following a 24-h recovery period, 70 eligible mice were randomly allocated to seven treatment groups (n = 10 per group) for the compound evaluation phase. […] All compounds were administered orally at a volume of 10 mL/kg. At 0.5 h post-administration, each mouse was re-exposed to 0.2 mL of 13% ammonia in a 500 mL glass jar for 1 min. Subsequently, the trained observer recorded the number of coughs over a 3-min period following removal from the jar. […] All experimental procedures were conducted in strict compliance with guidelines approved by the Institutional Animal Care and Use Committee of Shenzhen Salubris Pharmaceuticals Co., Ltd., ensuring adherence to ethical standards in animal research. A P value of less than 0.05 was considered statistically significant for comparisons between groups.

The target of another series is T1, Sigma-1 receptor (Homo sapiens, UniProt Q99720).
T1 construct: to the Sigma-1 receptor (Sigma-1R) of human-derived Jurkat cells; host or cells: Jurkat cells
T1 sequence (Q99720 whole entry): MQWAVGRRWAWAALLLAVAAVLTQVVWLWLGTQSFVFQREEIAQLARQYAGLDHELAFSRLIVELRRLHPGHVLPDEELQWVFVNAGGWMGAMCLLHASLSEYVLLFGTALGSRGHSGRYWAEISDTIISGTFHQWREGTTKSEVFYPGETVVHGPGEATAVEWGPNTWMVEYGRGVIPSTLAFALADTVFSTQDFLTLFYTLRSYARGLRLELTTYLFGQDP
Briefly: Sigma 1 receptor radioligand binding (3H-pentazocine, Jurkat cells). As to the method:
The experiments were carried out in the Eurofins Discovery laboratory, and the methods were referenced from previous studies with modifications ([Prasad et al., 1999]). Competitive binding of the samples and ^3H-pentazocine to the Sigma-1 receptor (Sigma-1R) of human-derived Jurkat cells was assessed using a radioligand binding method. The ability of the compound to bind competitively to the Sigma-1 receptor (Ki) was determined by detecting the signal value of the radioligand bound to the receptor.

Series [3] has as its target T2, norepinephrine transporter (Homo sapiens, UniProt P23975).
T2 construct: purchased PerkinElmer, Inc RBHNETM400UA
The series can be described thus: Norepinephrine transporter (NET) radioligand binding (3H-Nisoxetine). As to the method: The experiments were carried out in the Pharmaron laboratory, and the methods were referenced from previous studies with modifications ([Bylund and Toews, 1993]; [Galli et al., 1995]). Competitive binding of the compound and ^3H-Nisoxetine to NETs was assessed using a radioligand binding method. The ability of the compound to competitively bind to NET (Ki) was determined by detecting the signal value of the radioligand bound to the transporter using a Microbeta instrument (2450, Perkin Elmer, Massachusetts, United States).

The nature of series [4]: Metabolic stability in liver microsomes. Format: in vitro ADME, human. As to the method: All incubations were performed in duplicates. Verapamil was used as the positive control. After pre-warming the mixture for 5 min, reactions were initiated by the addition of NADPH (1 mM). Samples (30 μL) were taken at 0, 20, and 60 min, and the reaction was immediately terminated by adding 150 μL acetonitrile containing an analytical internal standard (IS). Samples were centrifuged at 4,000 rpm for 5 min in a centrifuge (5810R, Eppendorf, Germany), and the supernatant was analyzed by LC-MS/MS (Thermo Scientific TSQ Quantum Ultra, United States).
The in vivo clearance values (CLint = CLint, in vitro × (mg protein/g liver weight) × (g liver weight/kg body weight)) of humans were predicted by CLint, in vitro values using physiologically-based scaling factors, hepatic microsomal protein concentrations (48.8 mg protein/g liver), and liver weights (25.7 g/kg body weight). The in vivo hepatic clearance (CLH= (Q × CLint)/(Q + CLint)) was then calculated by using CLint and hepatic blood flow, Q (20.7 mL·min^−1·kg^−1 in humans).

A short description of series [5]: Pharmacokinetic study in C57BL/6 mice. It is filed as in vivo. The conditions noted are these: male, C57BL/6, mouse, plasma, po, 20 mg/kg. The source says: The assay was built in a way similar to that previously published by [Beconi et al. (2011)] with some modifications. A total of 36 male C57BL/6 mice, weighing between 20 and 22 g, were randomly divided into four groups of nine mice each. […] Mice in each group were numbered 1–9. Following the oral administration of the compounds in each group, blood was collected from the jugular vein at the specified time points, with three mice at each time point and two to three times for each mouse. 1–3 numbered mice had blood collection time points of 0.25, 1.5, and 7 h after the administration of the compounds, 4–6 numbered mice had blood collection time points of 0.5, 2, and 24 h after the administration of the compounds, and 7–9 numbered mice had blood collection time points of 1 and 5 h after the administration of the compounds. All blood samples were collected without anesthesia, and blood was collected in heparinized EP tubes. Plasma was obtained by centrifuging the blood at 10,000 rpm for 2 min at 4°C.

Series [6] can be described thus: Pharmacokinetics in male SD rat after oral administration. It is filed as in vivo. The conditions noted are these: male, SD, rat, in vivo, po, 50 mg/kg. The source says:
Results expressed as mean, n=3 per group

The next series relates to NMDA receptor. As to conditions: for Ki: read-out: Ki, NMDA receptor, 3H-MK801 competition, rat brain membranes, mean, n = 4. As to the method:
Membrane preparation was performed as previously described ([Werling et al., 2007]). Briefly, the brains of male Sprague-Dawley rats were dissected for tissue collection. The tissue was then homogenized in ice-cold extraction solution and centrifuged at 40,000 × g for 10 min (minute). The supernatant was discarded, the precipitate was resuspended in extraction solution, and the above steps were repeated two times. Finally, the precipitate was resuspended in a 10-fold volume of resuspension solution and stored at −80°C. Protein concentration was determined using a PierceTM BCA Protein Assay Kit. The competitive binding of the compound and ^3H-MK801 to the NMDA receptor was evaluated utilizing the filtration binding method. This method involves washing unbound radioligands and subsequently quantifying the signal values of the radioligands bound to the NMDA receptor using a Microbeta instrument (catalog number: 2450, Perkin Elmer, Massachusetts, United States).

In a further series the target is T3, nAchR α3β4 (Homo sapiens, UniProt P30926+P32297).
T3 construct: host or cells: CHO-K1
T3 sequence (P32297 32-505): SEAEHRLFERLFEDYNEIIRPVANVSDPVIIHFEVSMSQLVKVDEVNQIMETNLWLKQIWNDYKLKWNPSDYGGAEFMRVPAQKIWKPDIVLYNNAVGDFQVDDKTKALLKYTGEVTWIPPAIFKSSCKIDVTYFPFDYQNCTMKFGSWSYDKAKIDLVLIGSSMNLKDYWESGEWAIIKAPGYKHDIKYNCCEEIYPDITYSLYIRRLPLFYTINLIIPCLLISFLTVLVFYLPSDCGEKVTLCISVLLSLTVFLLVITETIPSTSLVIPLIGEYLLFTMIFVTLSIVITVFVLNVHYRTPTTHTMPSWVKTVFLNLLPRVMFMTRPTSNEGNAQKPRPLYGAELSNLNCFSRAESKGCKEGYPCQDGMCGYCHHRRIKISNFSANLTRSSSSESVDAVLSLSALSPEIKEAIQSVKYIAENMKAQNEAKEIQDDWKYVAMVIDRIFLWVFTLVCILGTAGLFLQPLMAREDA
T3 sequence (P30926 22-498): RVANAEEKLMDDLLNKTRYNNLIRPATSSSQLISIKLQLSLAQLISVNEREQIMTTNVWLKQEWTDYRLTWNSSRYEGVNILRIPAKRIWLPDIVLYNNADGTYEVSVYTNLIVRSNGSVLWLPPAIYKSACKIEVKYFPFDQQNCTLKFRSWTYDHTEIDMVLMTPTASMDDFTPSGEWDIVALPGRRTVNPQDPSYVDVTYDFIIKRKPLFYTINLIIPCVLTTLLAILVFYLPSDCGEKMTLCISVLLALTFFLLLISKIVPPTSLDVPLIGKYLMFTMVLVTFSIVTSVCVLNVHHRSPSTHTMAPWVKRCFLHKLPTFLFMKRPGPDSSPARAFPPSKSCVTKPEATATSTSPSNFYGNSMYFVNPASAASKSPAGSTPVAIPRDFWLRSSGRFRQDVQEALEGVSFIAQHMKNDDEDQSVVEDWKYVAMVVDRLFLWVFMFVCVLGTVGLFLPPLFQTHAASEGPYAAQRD
The series can be described thus: nAchR α3β4 radioligand binding (125I-epibatidine, recombinant CHO-K1 cells). Here is the method:
The experiments were carried out in the Eurofins Discovery laboratory, and the methods were referenced from previous studies with modifications ([Michelmore et al., 2002]; [Zaveri et al., 2010]). The competitive binding of the samples and ^125I-epibatidine to the nAchR α3β4 in human recombinant CHO-K1 cells was assessed using a radioligand binding method. The ability of the compound to competitively bind to nAchR α3β4 (Ki) was determined by detecting the signal value of the radioligand bound to the receptor.

For the next series, the target named is T4, serotonin transporter (Homo sapiens, UniProt P31645).
T4 construct: purchased PerkinElmer, Inc RBHSTM400UA
T4 sequence (P31645 whole entry): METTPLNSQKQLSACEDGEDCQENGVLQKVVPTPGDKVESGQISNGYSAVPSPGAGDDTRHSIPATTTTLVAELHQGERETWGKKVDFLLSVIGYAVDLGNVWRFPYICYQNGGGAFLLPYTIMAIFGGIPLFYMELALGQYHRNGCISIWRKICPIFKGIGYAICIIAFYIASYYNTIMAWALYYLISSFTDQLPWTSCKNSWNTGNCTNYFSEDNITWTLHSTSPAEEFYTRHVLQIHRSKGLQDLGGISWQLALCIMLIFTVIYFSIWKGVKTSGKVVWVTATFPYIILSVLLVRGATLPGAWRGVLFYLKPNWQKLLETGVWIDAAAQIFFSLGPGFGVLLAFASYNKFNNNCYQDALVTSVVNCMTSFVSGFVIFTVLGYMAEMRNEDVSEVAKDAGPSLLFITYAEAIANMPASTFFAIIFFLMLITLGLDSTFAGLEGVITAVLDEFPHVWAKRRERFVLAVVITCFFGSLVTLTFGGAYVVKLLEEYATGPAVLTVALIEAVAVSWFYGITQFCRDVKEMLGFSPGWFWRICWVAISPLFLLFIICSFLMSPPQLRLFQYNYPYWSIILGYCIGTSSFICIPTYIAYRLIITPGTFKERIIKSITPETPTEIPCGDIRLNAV
Briefly: biochemical. It is filed as binding. As to conditions: for Ki: radioligand competition, mean, n = 2. Here is the method: The experiments were carried out in the Pharmaron laboratory, and the methods were referenced from previous studies with modifications ([Yang and Gouaux, 2021]). Competitive binding of the samples and ^3H-hydroxytryptamine creatine sulfate on SERT was assessed using a radioligand binding method. The ability of the compound to competitively bind to SERT (Ki) was determined by detecting the signal value of the radioligand bound to the transporter using a Microbeta instrument (2,450, Perkin Elmer, Massachusetts, United States).

T2 sequence (P23975 whole entry): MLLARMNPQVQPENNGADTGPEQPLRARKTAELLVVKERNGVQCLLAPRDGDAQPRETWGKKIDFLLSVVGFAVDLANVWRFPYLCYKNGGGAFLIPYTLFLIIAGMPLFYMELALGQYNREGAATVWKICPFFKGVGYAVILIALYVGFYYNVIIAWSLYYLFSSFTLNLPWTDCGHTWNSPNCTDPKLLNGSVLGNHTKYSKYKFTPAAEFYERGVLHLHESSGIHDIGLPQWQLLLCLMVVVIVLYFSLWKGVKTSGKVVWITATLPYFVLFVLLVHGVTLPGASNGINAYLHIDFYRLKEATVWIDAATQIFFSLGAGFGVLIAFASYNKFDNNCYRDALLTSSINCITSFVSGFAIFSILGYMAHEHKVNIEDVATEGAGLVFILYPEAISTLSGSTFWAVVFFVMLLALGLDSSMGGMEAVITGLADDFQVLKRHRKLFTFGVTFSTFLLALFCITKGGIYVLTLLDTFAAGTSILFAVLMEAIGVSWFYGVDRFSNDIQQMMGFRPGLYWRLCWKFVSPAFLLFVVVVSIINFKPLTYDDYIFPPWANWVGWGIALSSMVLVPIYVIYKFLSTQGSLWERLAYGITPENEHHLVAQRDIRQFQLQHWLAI

For the compound `CC(NC(C)(C)C)C(=O)c1cccc(Cl)c1` (centres unmarked) [BUP, bupropion], the “floating time compared to the vehicle group” value with ICR mice [1] was “significantly reduced the floating time”. Besides, in the series on ICR mice [2], the “immobilization time compared to the vehicle group” value was “significantly reduced the immobilization time”. The “body temperature compared with the model (vehicle) group” value with Sprague-Dawley rats is given as “significantly increased the body temperature”. Besides, in the series on C57BL/6J mice (40 mg/kg, 0.5 h post-administration), the cough inhibition rate worked out at 19.5%. Moreover, the “cough inhibition compared with the vehicle group” value in the series on C57BL/6J mice (deDM 5 and 10 mg/kg, BUP 40 mg/kg, deDM + BUP 5 + 40 and 10 + 40 mg/kg) was “neither deDM nor BUP significantly inhibited cough”.

Regarding `COc1ccc2c(c1)[C@]13CCCC[C@@H]1[C@H](C2)N(C)CC3` [DM, dextromethorphan], the results for the Ki (on Sigma-1 receptor; in series [3]) were 1670 nM and 20500 nM, respectively. In series [4] (1 μM, 0.5 mg/mL human liver microsomes, NADPH 1 mM, 37°C, mean, n = 2), the half-life at 1 μM was determined as 1.24 h. For the same compound, the CLint scaled at 1 μM in [4] (human, liver microsomes, read-out: CLint, in vitro) came to 23.4 mL/min/kg. Further, the CLH in [4] (in vivo hepatic clearance predicted from CLint and hepatic blood flow 20.7 mL/min/kg, human) is 11.0 mL/min/kg. Also, the AUC(0-t) in [5] was found to be 184 ± 168 ng·h/mL; in [6], 194 ng·h/mL. Besides, the Cmax in series [5] (read-out: Cmax) is 74.9 ± 49 ng/mL; in [6] (read-out: Cmax) it was 56 ng/mL.

As to `CN1CC[C@@]23CCCC[C@@H]2[C@@H]1Cc1ccc(O)cc13` [DX, dextrorphan, reference compound], in the series with NMDA receptor (ratio of Ki values), the “higher affinity for NMDA receptors compared to DM” value came to 7 fold. For the same compound, the Ki is 220 nM on NMDA receptor; 2850 nM on Sigma-1 receptor; 9980 nM on nAchR α3β4; 140 nM at serotonin transporter; 5670 nM in series [3]. Further, the “lower affinity for SERT compared to DM” value at serotonin transporter (ratio of Ki values) stood at 17 fold.

In the case of deuterated dextrorphan [deDX], the Ki was determined as 420 nM on NMDA receptor; 2860 nM at Sigma-1 receptor (3H-pentazocine competition, human-derived Jurkat cells, mean, n = 2, read-out: Ki, Sigma-1 receptor); 15000 nM at nAchR α3β4 (125I-epibatidine competition, human recombinant CHO-K1 cells, mean, n = 2, read-out: Ki, α3β4 nicotinic acetylcholine receptors); 120 nM at serotonin transporter; 7930 nM in [3] (3H-Nisoxetine competition, mean, n = 2, read-out: Ki, norepinephrine transporter).
